These results are taken from patent publication US6042841A, “Cosmetic method of treating skin” (Unilever Home & Personal Care USA Division of Conopco, Inc., priority 1998, dated 2000).

Molecules are shown by their SMILES.

Common to all, as to type: cell-based
The test system of test [1] is ICAM. Kind of test: ICAM-1 assay, PMA-induced ICAM production in human skin fibroblasts. The settings on record: for ICAM: N 4, p < 0.001 vs PMA-treated. Here is the method:
(§1) Intracellular adhesion molecules (ICAM) and PEG2 production by human skin fibroblasts can be induced by the inflammatory stimulus PMA (phorbal myristate acetate). PMA represents an external stressor which induces oxidative stress and inflammatory responses in cells. This model is used to model inflammation in vivo.
(§2) Primary human foreskin fibroblasts at passage 2 (P2) were seeded into 96-well plates at 10000 cells/well and maintained for 24 hours in an atmosphere of 5% carbon dioxide in Dulbeccos Modified Eagles Medium (DMEM) supplemented with 10% foetal calf serum. […] Phorbal myristate acetate (PMA) (Sigma) was added to the media and the cells incubated for a further 24 hours. […] The fibroblasts/media were then analysed as described below immediately or snap frozen in liquid nitrogen and stored at -70° C. for future analysis. The cells were then counted and data from the dot-blot analysis subsequently standardised to cell number.
ICAM-1 assay: Media were discarded and cells washed with Dulbecco PBS. To the washed cells, 150 μl 0.1% Triton X-100 (Sigma) was added for 3 minutes to extract ICAM from cell membrane. The extracts were transferred to Eppendoff centrifuge tubes and centrifuged at 1000 g for 2 min to remove cell debris. A volume of 100 μl supernatant was used for ICAM assay. The soluble ICAM-1 was assessed with commercially available immunoenzymometric assay kit (R&D Systems). Concentrations of ICAM-1 in the samples were determined based on parallelly running standard curve.

The subject of test [2] is PGE2. Kind of test: Prostaglandin E2 assay, PMA-induced PGE2 production in human skin fibroblasts. The settings on record: for PGE2: N 4, p < 0.001 vs PMA-treated. As for the experimental part:
as §1, §2
Prostaglandin E2 (PGE2) assay: Volumes of 50 μl culture medium were taken for PGE2 assay after gently shaking the culture plate. PGE2 levels in the medium were determined with a Biotrak PGE2 immunoassay kit (Amersham, UK). The assay is based on the competition between unlabelled PGE2 in the sample and a fixed quantity of horseradish peroxidase labelled PGE2 for a limited amount of fixed PGE2 specific antibody. Concentrations of unlabelled sample PGE2 are determined according to a standard curve which was obtained at the same time.

The test system of test [3] is B16-F1 mouse melanoma cells. Kind of test: Pigmentation assay (melanin in media). As for the experimental part:
B16-F1 mouse melanoma cells (American Type Culture Collection, Maryland, USA) were maintained in 75 cm^2 culture flasks in RPMI 1640 medium (ICN-Flow, cat. no. 12-60-54) supplemented with L-glutamine (4 mM) and 10% foetal bovine serum (FBS) at 37° C. in a water saturated, 5% CO2 in air atmosphere. Cells were passaged twice weekly.
Subconfluent B16 cells were seeded in 96 well microtiter plates at a density of 5000 cells/well and cultured overnight in DMEM (Life Technologies, NY) containing 10% foetal bovine serum and 1% penicillin/streptomycin without phenol red at 37° C. under 5% CO2. After 24 hours, the media was replaced with fresh media containing the test materials or vehicle controls. Cells were incubated for 72 hours at which time melanin was visible in the control wells. Next, the melanin containing media from each well was transferred to a clean 96 well plate and quantified by reading the absorbance at 530 nm using a microplate spectrophotometer (Dynatech MR5000) and correcting for the baseline absorption of fresh medium. As the corrected absorption is proportional to the melanin concentration the percentage pigmentation for a skin lightening test substance can be calculated as: […]
where OD530 test and OD530 ref indicate the average corrected absorption of the medium from the wells with the test substance and that of the medium from the wells without the test substance. The percentage inhibition caused by the test substance is then 100 - % pigmentation.

Test [4] relates to PGE2. The experiment in a line: Keratinocyte PGE2 assay (basal release). Conditions: 0.1 and 1 μM; 1 way ANOVA, p<0.05. Here is the method: This was then replaced with KGM without hydrocortisone for 24-48 hours. No petroselinic acid was added to the control cells. […] At the end of the incubation the medium was harvested and assayed for the basal release of the pro-inflammatory PGE2 by enzyme-linked immuno assay using a commercial PGE2 kit (Amersham, Buckinghamshire, England).
The anti-inflammatory potential of the test compounds were assessed by the ability of the compounds to reduce the basal levels of secreted PGE2 as compared to the control. […]

For test [5], the system named is keratinocytes. Kind of test: Keratinocyte SDS viability assay (Neutral Red). Conditions: vs 2 μg/ml SDS alone; 1 way ANOVA, p<0.05. Here is the method:
After incubating for 24 hours the medium was removed and the viability determined by the Neutral Red method.

With `CCCCCCCCCCC/C=C\CCCCC(=O)O` [Petroselinic Acid, petroselinic acid], the ICAM in test [1] (PMA + PA (0.1 uM)) stood at 8.64 ± 0.89 ng/mL; in test [1] (PMA + PA (1 uM)) it was 7.71 ± 0.66 ng/mL; in test [1] (PMA + PA (10 uM)), 7.39 ± 0.14 ng/mL; in test [1] (PMA + PA (100 uM)), 6.68 ± 1.35 ng/mL. In addition, the “production of ICAM (in words)” value in test [1] (PMA-challenged) was “decreases the production”. Besides, the PGE2 was found to be 500 ± 127 pg/mL in test [2] (PMA + PA (0.1 uM)), 486 ± 93 pg/mL in test [2] (PMA + PA (1 uM)), 233 ± 139 pg/mL in test [2] (PMA + PA (10 uM)) and 117 ± 39 pg/mL in test [2] (PMA + PA (100 uM)). For the same molecule, the “inflammatory response as measured by PGE2 production (in words)” value in test [2] (PMA-challenged, even at 0.1 μm (so in the source)) was “dramatically reduces the inflammatory response”. The “melanin production (in words)” value in test [3] was “inhibits melanin production”. In test [3] (Mus musculus, B16-F1, 0.01%, 72 hours, n = 4, ** (0.000)), the activity at 0.01 % is 79.5%. In test [3] (Mus musculus, B16-F1, 0.013%, 72 hours, n = 4, ** (0.000)), this molecule returned an activity at 0.013 % of 40.4%. This molecule registered an activity at 0.02 % in test [3] (Mus musculus, B16-F1, 0.02%, 72 hours, n = 4, ** (0.000)) of 55.3%. In test [3] (Mus musculus, B16-F1, 0.04%, 72 hours, n = 4, ** (0.000)), this molecule registered an activity at 0.04 % of 3.9%. This molecule also showed an activity at 0.1 % in test [3] (Mus musculus, B16-F1, 0.1%, 72 hours, n = 4, ** (0.000)) of 19.3%. The “release of PGE2 from unstimulated keratinocytes (in words)” value in test [4] is on record as “significantly (p<0.05) reduced”. For the same molecule, the “Keratinocyte viability vs SDS alone (in words)” value in test [5] was “significantly increased viability”.
